Test results published in patent US20240018132A1, “5-HYDROXY-1,4-NAPHTHALENEDIONE FOR USE IN THE TREATMENT OF CANCER” (GODAVARI BIOREFINERIES LIMITED, priority 2020, published 2024).
Each block holds one compound with its values, some of them ahead of it.

Legend:
MDAMB231 [1] = test: In vitro antiproliferative assay (MTT assay), breast cancer cell line; assay type: cell-based; conditions: Homo sapiens, MDA-MB-231, 48 h, MTT assay, breast cancer MDAMB231, 48 hrs drug incubation
Outline: (§1)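 Cells plated, grown 24 h at 37 °C/5% CO2, then exposed to compounds (from 0.1 M DMSO stock) for 48 h. Viability read by MTT (0.5 mg/ml, 4 h) with DMSO solubilization; log % viability plotted against log concentration.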

PC3 [2] = test: In vitro antiproliferative assay (MTT assay), prostate cancer cell line; assay type: cell-based; conditions: Homo sapiens, PC-3, 48 h, MTT assay, prostate cancer PC3, 48 hrs drug incubation
Outline: as §1

MDAMB231 [3] = test: Soft agar colony-formation assay, breast cancer; assay type: cell-based; conditions: for anticancer activity in comparison with cisplatin, soft agar, breast cancer cell line: FIG. 51, MDAMB231; for IC50: Homo sapiens, MDA-MB-231, 168 h, Soft Agar Assay, 1 week, Alamar Blue
Protocol: The Soft Agar Colony-formation Assay is an anchorage-independent growth assay in soft agar, which is one of the most stringent assays for detecting malignant transformation of cells. For this assay, malignant cells are cultured with appropriate controls in soft agar medium for 1-2 weeks. Following this incubation period, formed colonies can either be analyzed morphologically using cell stain and quantifying the number of colonies formed.
Briefly, for Soft Agar Assay a mixture of 50 ul of 2× medium (taken appropriately as per cell line) and 50 ul of 1.2% Bacto Agar were plated on to each well of 96 well micro titer assay plate. 10 ul of cells (of specific plating efficiency pre standardized for respective cell line) were mixed with 20 ul of 2× medium and 30 ul of 0.8% of Bacto Agar and 1.6 ul of drug (of appropriate concentration) in a vial and transferred to the solidified pre layers of the assay plates. The cells were then allowed to grow and form colonies at 37° C. and 5% CO2 for 1 week. An intermittent feeding with 50 ul of appropriate 2× medium was performed after 3 days of experimental set up. 16 ul of Alamar Blue (1.5 mg/ml) was then added to all the wells to quantify the developed colonies. The plates were incubated for 24 hrs at 37° C. Absorbance was then measured at 630 nm. XY graph of log Percent viability was then plotted against log drug concentration.
Following plating efficiencies were standardized for Soft Agar Assay: […]

Human lymphocytes = test: Lymphocyte assay (MTT on normal cells); assay type: cell-based; conditions: human peripheral blood lymphocytes, MTT procedure; for IC50: Lymphocyte
Outline: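 Lymphocytes from human peripheral blood isolated by density-gradient centrifugation on HiSep LSM 1077, washed in D.P.B.S; only cells with purity and viability above 95% used. Seeded at 0.7 million/ml and assessed by MTT.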

PC3 [4] = test: Wound Healing Assay (WHA), prostate cancer cell line; assay type: cell-based; conditions: IC10 conc. of compound
Protocol: Wound Healing Assay (WHA) determines the ability of cancer stem cells to heal the wound formed in a confluent monolayer.
Procedure: 0.35×10^6 cells were plated in each well of 6 Tissue Culture well plates. The plate was incubated for 48 hrs at 37° C., 5% CO2. […] IC10 conc. of the respective compound was added into each well. The plates were incubated at 37° C., 5% CO2 and the width of scratch was measured at various time intervals such as 6, 24 and 48 hours. Average of 3 distances were taken for each time point using IS camera Measure. A plot of average width of scratch in micrometer was plotted against the time interval after treatment.

MDAMB231 [5] = test: In vitro sphere-forming assay (cancer stem cells), Mammosphere media; conditions: for 3D sphere count of MDAMB231: Mammosphere media, 2000 cells/well, n = 6 ± S.D
Procedure: In Vitro Sphere-forming Assay: Sphere assay measures the ability of cancer stem cells (CSCs) to form spheres in specially designed serum-free medium.
Mammosphere Media Preparation (For 100 mL): 1 g methyl cellulose autoclaved with magnetic stirrer, 100 ml plain media (MEBM) was added and dissolved under magnetic stirring. After complete dissolution FGF-80 μL, EGF-40 μL, Penstrep-1 mL, Heparin-400 μL was added.
Procedure—The cells were trypsinised and made into single-cell suspension by passing through cell strainers (100 μl and 40 μl, respectively), The cells were diluted at a concentration of 2000 cells/100 μL and suspended in either Mammosphere (for breast cell lines) or Prostosphere (for prostate cell lines). 100 μL of this suspension was added into each well of 96-well suspension plates and incubated at 37° C., 5% CO2 for 24 hrs. Appropriate concentrations of the drugs (2 μL) were added into respective wells with 100 μL of stem cell culture medium. Plates were incubated at 37° C., 50 CO2 for 72 hrs. After incubation, 2.5 μL of the respective drug concentration and 50 μL of stem cell culture medium were added into each well and the plates were further incubated at 37° C., 50% CO2 for 72 hrs. 3 μL of the respective drug concentration was added with 50 μL of stem cell culture medium again after incubation and plates were reincubated for 72 hrs at 37° C., 50 CO2. Number of primary spheres formed for each concentration were counted. The spheres were converted to 0 viability of spheres compared to untreated (Growth Control with DMSO, GCD).

[6] = Homo sapiens, MDA-MB-231, read-out: % Viability of spheres (MDAMB231)

SMILES: O=C1C(c2ccc3c(c2)OCO3)=CC(=O)c2c(OCCCCN3CCOCC3)cccc21 [Formula 2, 5-(4-morpholinobutoxy)-2-(benzo[d][1,3]dioxol-6-yl)naphthalene-1,4-dione]
IC50 (MDAMB231 [1]): 566 nM
IC50 (PC3 [2]): 344 nM
anticancer activity in comparison with cisplatin, soft agar, breast cancer cell line (MDAMB231 [3]): higher anticancer activity in comparison with cisplatin
IC50 (MDAMB231 [3]): 2080 nM
IC50 (Human lymphocytes): 11500 nM
% inhibition of Wound Healing for Prostate Cancer Cell line (PC3) after 48 hrs (PC3 [4]): 45.25%
viability at 0.025 µM (MDAMB231 [5]; [6]): 84%
viability at 0.25 µM (MDAMB231 [5]; [6]): 66%
viability at 2.5 µM (MDAMB231 [5]; [6]): 46%
viability at 25 µM (MDAMB231 [5]; [6]): 30%
viability at 250 µM (MDAMB231 [5]; [6]): 14%
3D sphere count of MDAMB231 (MDAMB231 [5]; drug 0.025 uM): 65(±5)
3D sphere count of MDAMB231 (MDAMB231 [5]; drug 0.25 uM): 51(±3)
3D sphere count of MDAMB231 (MDAMB231 [5]; drug 2.5 uM): 36(±3)
3D sphere count of MDAMB231 (MDAMB231 [5]; drug 25 uM): 23(±3)
3D sphere count of MDAMB231 (MDAMB231 [5]; drug 250 uM): 11(±3)

IC50 (MDAMB231 [1]): 3130 nM
IC50 (PC3 [2]): 4320 nM
IC50 (MDAMB231 [3]): 3880 nM
SMILES: O=C1C(NC2CCCCC2)=CC(=O)c2c(OCCN3CCOCC3)cccc21 [Formula 52]
anticancer activity in comparison with cisplatin, soft agar, breast cancer cell line (MDAMB231 [3]): higher anticancer activity in comparison with cisplatin
Activity on Lymphocytes (IC50) (Human lymphocytes): No activity
% inhibition of Wound Healing for Prostate Cancer Cell line (PC3) after 48 hrs (PC3 [4]): 34.7%
viability at 0.0025 µM (MDAMB231 [5]; [6]): 62%
viability at 0.025 µM (MDAMB231 [5]; [6]): 50%
viability at 0.25 µM (MDAMB231 [5]; [6]): 45%
viability at 2.5 µM (MDAMB231 [5]; [6]): 38%
viability at 25 µM (MDAMB231 [5]; [6]): 26%
3D sphere count of MDAMB231 (MDAMB231 [5]; drug 0.0025 uM): 69(±3)
3D sphere count of MDAMB231 (MDAMB231 [5]; drug 0.025 uM): 55(±7)
3D sphere count of MDAMB231 (MDAMB231 [5]; drug 0.25 uM): 43(±3)
3D sphere count of MDAMB231 (MDAMB231 [5]; drug 2.5 uM): 34(±4)
3D sphere count of MDAMB231 (MDAMB231 [5]; drug 25 uM): 24(±3)

IC50 (MDAMB231 [1]): 951 nM
IC50 (PC3 [2]): 1680 nM
IC50 (MDAMB231 [3]): 353 nM
SMILES: COc1ccc(NC2=CC(=O)c3c(OCCN4CCOCC4)cccc3C2=O)cc1OC [Formula 40, 5-(2-morpholinoethoxy)-2-(3,4-dimethoxyphenylamino) naphthalene-1,4-dione]
anticancer activity in comparison with cisplatin, soft agar, breast cancer cell line (MDAMB231 [3]): higher anticancer activity in comparison with cisplatin
IC50 (Human lymphocytes): 13200 nM
% inhibition of Wound Healing for Prostate Cancer Cell line (PC3) after 48 hrs (PC3 [4]): 48.56%
viability at 0.0025 µM (MDAMB231 [5]; [6]): 78%
viability at 0.025 µM (MDAMB231 [5]; [6]): 56%
viability at 0.25 µM (MDAMB231 [5]; [6]): 41 ± 4%
viability at 2.5 µM (MDAMB231 [5]; [6]): 27%
viability at 25 µM (MDAMB231 [5]; [6]): 10%
3D sphere count of MDAMB231 (MDAMB231 [5]; drug 0.0025 uM): 60(±3)
3D sphere count of MDAMB231 (MDAMB231 [5]; drug 0.025 uM): 43(±3)
3D sphere count of MDAMB231 (MDAMB231 [5]; drug 0.25 uM): 32(±4)
3D sphere count of MDAMB231 (MDAMB231 [5]; drug 2.5 uM): 21(±3)
3D sphere count of MDAMB231 (MDAMB231 [5]; drug 25 uM): 8(±2)
